Experimental findings from patent US9309213B2, “C-3 substituted bicyclooctane based HIV protease inhibitors” (Purdue Research Foundation, priority 2011, dated 2016) are described below.

Holding throughout (assay type): cell-based
One assay concerns HIV-1MDR/G. In words: microbe, parasite or virus in culture. The conditions noted are these: for IC50: Human immunodeficiency virus 1, read-out: IC50 ± SDs; for EC50 / fold-change in EC50: Table 4; for EC50: HIV-1MDR/G (X4), PHA-PBMs, p24 Gag; for fold-change in EC50: HIV-1MDR/G compared to wild-type HIV-1ERS104pre.
The next assay has as its system HIV-1MDR/TM. Put plainly: microbe, parasite or virus in culture. The conditions noted are these: for IC50: Human immunodeficiency virus 1, read-out: IC50 ± SDs; for EC50 / fold-change in EC50: Table 4; for EC50: HIV-1MDR/TM (X4), PHA-PBMs, p24 Gag; for fold-change in EC50: HIV-1MDR/TM compared to wild-type HIV-1ERS104pre.
Another assay concerns HIV-1MDR/B. Put plainly: microbe, parasite or virus in culture. The conditions noted are these: for IC50: Human immunodeficiency virus 1, read-out: IC50 ± SDs; for EC50 / fold-change in EC50: Table 4; for EC50: HIV-1MDR/B (X4), PHA-PBMs, p24 Gag; for fold-change in EC50: HIV-1MDR/B compared to wild-type HIV-1ERS104pre.
Another assay has as its system HIV-1LAI. Put plainly: In vitro antiviral assay, MT-2 cells exposed to HIV-1LAI, MTT assay.
The next assay has as its system HIV-1MDR/C. In words: microbe, parasite or virus in culture. To be noted: for IC50: Human immunodeficiency virus 1, read-out: IC50 ± SDs; for EC50 / fold-change in EC50: Table 4; for EC50: HIV-1MDR/C (X4), PHA-PBMs, p24 Gag; for fold-change in EC50: HIV-1MDR/C compared to wild-type HIV-1ERS104pre.
For assay [1], the system named is HIV-1ERS104pre (wild type). In words: Antiviral assay in PHA-PBMs, inhibition of p24 Gag protein production, wild-type isolate.
For assay [2], the system named is multidrug-resistant HIV-1 variants. In words: Antiviral activity against the panel of multidrug-resistant HIV-1 variants. How it is done:
Inhibitors 22 with a 3(S)-hydroxyl group and 25 with a 3(R)-hydroxyl group on the Cp-THF ligand were tested against a panel of multidrug-resistant HIV-1 variants. […] The contrast in antiviral activity of 22 compared to 25 underlines the importance of the stereochemistry at the 3-position of the Cp-THF ligand.
Such a stark contrast in antiviral activities underlines the importance of the stereochemistry at the 3-position of the P2 ligand.

The mark [3] stands for this setting: Human immunodeficiency virus 1, MT2, Table 1, MT-2 cells, 100 TCID50s of HIV-1LAI, MTT assay, means of at least two experiments.
[4] abbreviates: Human immunodeficiency virus 1, MT2, read-out: antiviral IC50.
[5] abbreviates: Human immunodeficiency virus 1, read-out: IC50 ± SDs.

Each structure is given as a SMILES string. Read-outs that look alike come from different tables or passages of the source.

For the compound `COc1ccc(S(=O)(=O)N(CC(C)C)C[C@@H](O)[C@H](Cc2ccccc2)NC(=O)O[C@@H]2C[C@@H]3[C@H](O)CO[C@@H]3C2)cc1` [Inhibitor 22, (3S,3aR,5R,6aR)-3-hydroxyhexahydro-2H-cyclopenta[b]furan-5-yl (2S,3R)-3-hydroxy-4-(4-(methoxy)-N-isobutylphenylsulfonamido)-1-phenylbutan-2-ylcarbamate], the concentration for half-maximal inhibition (IC50) in the assay on HIV-1MDR/G is 270 ± 20 nM; in the assay with HIV-1MDR/TM, 41 ± 4 nM; in the assay on HIV-1MDR/B it was > 1000 nM; with HIV-1LAI (setting [3]), 5 nM; in the assay with HIV-1LAI (setting [4]) it was 5 nM; with HIV-1LAI (Table 1, MT-2 cells, 100 TCID50s of HIV-1LAI, MTT assay, means of at least two experiments) it was 7 nM. Also, the IC50 was > 1000 nM in the assay on HIV-1MDR/C, 20 nM in assay [1] (Human immunodeficiency virus 1) and 20 ± 4 nM in assay [1] (setting [5]).
Turning to `COc1ccc(S(=O)(=O)N(CC(C)C)C[C@@H](O)[C@H](Cc2ccccc2)NC(=O)O[C@@H]2C[C@@H]3[C@@H](O)CO[C@@H]3C2)cc1` [Inhibitor 25], the half-inhibitory concentration (IC50) in the assay with HIV-1MDR/G turned out to be 4.5 ± 0.7 nM; in the assay with HIV-1MDR/TM, 3.1 ± 2 nM; in the assay on HIV-1MDR/B, 29 ± 7 nM; with HIV-1LAI (setting [3]), 2.9 nM; in the assay on HIV-1LAI (setting [4]) it was 2.9 nM; with HIV-1MDR/C, 22 ± 3 nM. The IC50 in assay [1] (Human immunodeficiency virus 1) was 2.9 nM; in assay [1] (setting [5]), 2.9 ± 0.8 nM; in assay [2] (Human immunodeficiency virus 1, read-out: IC50 values against various multidrug-resistant HIV-1 strains), 2.9 to 29 nM.
`COC(=O)N[C@@H]1CO[C@@H]2C[C@H](OC(=O)N[C@@H](Cc3ccccc3)[C@H](O)CN(CC(C)C)S(=O)(=O)c3ccc(OC)cc3)C[C@H]12` [Inhibitor 19l]: the EC50 is 39 ± 1 nM in the assay with HIV-1MDR/G; 74 ± 6 nM in the assay on HIV-1MDR/TM; 75 ± 11 nM in the assay with HIV-1MDR/B; 30 ± 6 nM in the assay with HIV-1MDR/C; 29 ± 2 nM in assay [1] (Table 4, HIV-1ERS104pre (wt), PHA-PBMs, p24 Gag, read-out: EC50 ± SDs). The “fold-change in EC50” value in the assay with HIV-1MDR/G came out at 1; with HIV-1MDR/TM it was 3; in the assay with HIV-1MDR/B, 3; in the assay on HIV-1MDR/C, 1. Further, the “fold changes in EC50” value in assay [2] (all MDR HIV-1 viruses versus wild type) was < 3.
On to `COC(=O)N[C@H]1CO[C@@H]2C[C@H](OC(=O)N[C@@H](Cc3ccccc3)[C@H](O)CN(CC(C)C)S(=O)(=O)c3ccc(OC)cc3)C[C@H]12` [Inhibitor 19m], for which the EC50 was 20 ± 5 nM in the assay with HIV-1MDR/G; 24 ± 4 nM with HIV-1MDR/TM; 18 ± 3 nM in the assay with HIV-1MDR/B; 15 ± 5 nM in the assay on HIV-1MDR/C; 3 nM in assay [1] (wild-type HIV-1ERS104pre, read-out: EC50); 15 to 24 nM in assay [2] (range over the strains). In addition, the “fold-change in EC50” value is recorded as 7 with HIV-1MDR/G, 8 with HIV-1MDR/TM, 6 in the assay on HIV-1MDR/B and 5 in the assay with HIV-1MDR/C.
